Test results published in US20100093642A1, “NOVEL POLYPEPTIDES” (priority 2006, published 2010).
Residues, ends and D or L forms follow the SMILES beside them. No end group written: not given here.

How the values were obtained:
[1] = tested on: human breast malignant carcinoma cell line (MT-1); assay type: cell-based; conditions: 24 h
Experimental: The cytotoxic effects of the peptides on different human tumour cells were measured using the MTT colorimetric assay (Mosmann, 1983). MIT (3-(4-5-dimethylthiazol-2-yl)-2,5-diphenyl tetrazolium bromide) is a soluble tetrazolium salt yielding a yellow solution when prepared in media or salt solutions lacking phenol red. Dissolved MIT is converted to an insoluble purple formazan by cleavage of the tetrazolium ring by dehydrogenase enzymes. This water insoluble formazan can be solubilized using isopropanol or other solvents and the dissolved material is measured spectrophotometrically. The absorbance was measured as a function of concentration of converted dye. […]
The tumour cell lines FemX, HT-29, MT-1 were maintained in RPMI-1640 medium supplemented with 10% heat inactivated FBS and 1% L-glutamine in a humidified atmosphere of 5% CO2 at 37° C. […] Cells to be used in the assay were grown to a minimum of 75% confluency, trypsinated and split to single cell suspension, counted and centrifuged at 1500 rpm for 10 min. […]
The cytotoxicity was measured using the MTT method (Mosmann, 1983), with minor modifications. […] The plate was placed on a shaker for 1 hour at room temperature and read spectrophotometrically at 590 nm in a microtiter plate reader (DTX880 Multimode Detector, Beckman Coulter). […]

[2] = tested on: C. glutamicum (ATCC 13032); assay type: cell-based, Corynebacterium glutamicum
Summary of the method: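 Peptide fractions were incubated with actively growing bacteria in Mueller Hinton medium at a starting concentration of 3×10^4 cells per ml. Growth was monitored continuously in a Bioscreen C reader; polymyxin B served as reference.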

THP-1 cells = experiment: in vitro; assay type: cell-based, human
Experimental: The toxicity of test peptides on THP-1 cells was measured using the MIT method (Mosmann, 1983), with minor modifications. To induce monocyte-macrophage differentiation, THP-1 cells were cultured in 96-well culture plates (10^6 cells/well) in a volume of 100 μl RPMI 1640 medium, containing 50 ng/ml PMA (which is known to induce the maturation of monocytes) and incubated in a humidified atmosphere of 5% CO2 at 37° C. for 48 hours. The medium was then removed and the cells were washed with PBS, added 100 μl fresh medium (without PMA) and incubated for another 24 hours. Medium was removed and the adherent macrophages were treated with 100 μl of peptide solution (concentrations ranging from 0 to 800 μg/ml), diluted in RPMI-1640 assay medium without FBS. After incubation at 37° C. for 1 hour, the cells were added LPS (0.1 μg/ml) and further incubated for 4 hours. Cells treated with Triton X-100 (1%) were used as positive control (100% killing) whereas cells plus medium only were used as negative control. Following the incubation period, 10 μl MTT (5 mg/ml) dissolved in phosphate-buffered saline (PBS) was added to each well, and the plate was further incubated for 2 hours. A volume of 70 μl of the supernatant was then removed and 100 μl acid alcohol (0.04 M HCl in isopropanol) added to each well to dissolve the dark blue crystals. The plate was placed on a shaker for 1 hour at room temperature and read spectrophotometrically at 595 nm in a microtiter plate reader (DTX880 Multimode Detector, Beckman Coulter). Cell survival (%) was then determined from the ΔA595 nm relative to negative control (100% living cells) and expressed as 50% inhibitory concentration (IC50). The IC50 values were estimated from the dose-response curves, which were obtained by averaging at least 3 parallel experiments.

Compound	IC50 [1]	Minimal inhibitory concentration, C. glutamicum [2]	Toxicity to THP-1 cells TC50 (THP-1 cells)
CC[C@H](C)[C@H](NC(=O)CNC(=O)[C@H](CO)NC(=O)[C@H](CCCCN)NC(=O)[C@@H](NC(=O)[C@H](C)NC(=O)[C@H](Cc1c[nH]cn1)NC(=O)[C@H](CO)NC(=O)[C@@H](NC(=O)[C@H](CCCCN)NC(=O)[C@H](Cc1c[nH]cn1)NC(=O)[C@H](Cc1ccccc1)NC(=O)[C@@H](NC(=O)[C@H](CCCCN)NC(=O)[C@H](CCCCN)NC(=O)[C@H](Cc1ccccc1)NC(=O)C(Cc1c[nH]c2ccc(Br)cc12)NC(=O)CN)[C@@H](C)O)C(C)C)C(C)C)C(=O)N[C@@H](Cc1c[nH]cn1)C(=O)N[C@@H](C)C(=O)NCC(=O)N[C@@H](CCC(N)=O)C(=O)N[C@@H](CCCNC(=N)N)C(=O)NCC(=O)N[C@@H](CS)C(=O)N[C@@H](CO)C(=O)N[C@@H](C)C(=O)N[C@@H](CC(C)C)C(=O)NCC(=O)N[C@@H](Cc1ccccc1)C(=O)O (stereo partly drawn) [P17 HC-Br] (HELM PEPTIDE1{G.[O=C(C(Cc1c[nH]c2ccc(Br)cc12)N[*:1])[*:2]].F.K.K.T.F.H.K.V.S.H.A.V.K.S.G.I.H.A.G.Q.R.G.C.S.A.L.G.F}$$$$V2.0)	20 µM	–	–
GWFKKTFHKVSHAVKSGIHA [P17 HC (1-20)]	–	1.56 µM	—^b
